One block for each compound: values may come before it.
Assays:
[1] = molecular target: Cell division cycle 7-related protein kinase (Homo sapiens) (UniProt O00311); experiment: Inhibition of human recombinant CDC7 at 500 nM related to control ULK1
[2] = molecular target: T1, Ephrin type-A receptor 8 (Homo sapiens) (UniProt P29322); experiment: Inhibition of human recombinant EphA8 at 500 nM in presence of ATP by radiometric assay relative to control
T1 sequence (whole entry): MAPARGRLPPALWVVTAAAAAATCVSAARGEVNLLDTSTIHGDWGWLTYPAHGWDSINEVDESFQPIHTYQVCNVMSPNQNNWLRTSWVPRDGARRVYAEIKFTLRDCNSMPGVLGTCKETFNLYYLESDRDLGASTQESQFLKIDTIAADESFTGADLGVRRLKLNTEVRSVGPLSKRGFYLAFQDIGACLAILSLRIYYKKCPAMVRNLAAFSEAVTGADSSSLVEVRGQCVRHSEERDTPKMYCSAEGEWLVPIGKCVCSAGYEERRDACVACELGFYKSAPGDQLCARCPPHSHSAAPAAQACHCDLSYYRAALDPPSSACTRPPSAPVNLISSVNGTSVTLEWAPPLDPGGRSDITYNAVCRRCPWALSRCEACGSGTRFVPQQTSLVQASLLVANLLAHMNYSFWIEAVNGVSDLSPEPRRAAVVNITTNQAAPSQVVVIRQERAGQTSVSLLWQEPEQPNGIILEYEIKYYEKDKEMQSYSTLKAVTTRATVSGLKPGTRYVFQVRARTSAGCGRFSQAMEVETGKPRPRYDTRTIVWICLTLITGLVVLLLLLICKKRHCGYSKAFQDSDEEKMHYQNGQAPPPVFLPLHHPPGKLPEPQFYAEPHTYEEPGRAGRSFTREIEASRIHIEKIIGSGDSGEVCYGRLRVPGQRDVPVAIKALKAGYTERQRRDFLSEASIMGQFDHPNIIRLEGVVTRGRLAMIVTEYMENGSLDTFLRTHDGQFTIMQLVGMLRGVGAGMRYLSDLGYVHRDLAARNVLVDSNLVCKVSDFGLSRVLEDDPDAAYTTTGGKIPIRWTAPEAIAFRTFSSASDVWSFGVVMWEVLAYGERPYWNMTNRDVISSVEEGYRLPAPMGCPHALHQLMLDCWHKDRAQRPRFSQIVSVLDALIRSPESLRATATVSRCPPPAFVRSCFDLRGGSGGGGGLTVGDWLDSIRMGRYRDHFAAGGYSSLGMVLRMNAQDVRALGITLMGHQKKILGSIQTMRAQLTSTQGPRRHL

[3] = molecular target: T2, Serine/threonine-protein kinase ULK2 (Homo sapiens) (UniProt Q8IYT8); experiment: Inhibition of human recombinant ULK2 at 40 nM in presence of ATP by radiometric assay relative to control
T2 sequence (whole entry): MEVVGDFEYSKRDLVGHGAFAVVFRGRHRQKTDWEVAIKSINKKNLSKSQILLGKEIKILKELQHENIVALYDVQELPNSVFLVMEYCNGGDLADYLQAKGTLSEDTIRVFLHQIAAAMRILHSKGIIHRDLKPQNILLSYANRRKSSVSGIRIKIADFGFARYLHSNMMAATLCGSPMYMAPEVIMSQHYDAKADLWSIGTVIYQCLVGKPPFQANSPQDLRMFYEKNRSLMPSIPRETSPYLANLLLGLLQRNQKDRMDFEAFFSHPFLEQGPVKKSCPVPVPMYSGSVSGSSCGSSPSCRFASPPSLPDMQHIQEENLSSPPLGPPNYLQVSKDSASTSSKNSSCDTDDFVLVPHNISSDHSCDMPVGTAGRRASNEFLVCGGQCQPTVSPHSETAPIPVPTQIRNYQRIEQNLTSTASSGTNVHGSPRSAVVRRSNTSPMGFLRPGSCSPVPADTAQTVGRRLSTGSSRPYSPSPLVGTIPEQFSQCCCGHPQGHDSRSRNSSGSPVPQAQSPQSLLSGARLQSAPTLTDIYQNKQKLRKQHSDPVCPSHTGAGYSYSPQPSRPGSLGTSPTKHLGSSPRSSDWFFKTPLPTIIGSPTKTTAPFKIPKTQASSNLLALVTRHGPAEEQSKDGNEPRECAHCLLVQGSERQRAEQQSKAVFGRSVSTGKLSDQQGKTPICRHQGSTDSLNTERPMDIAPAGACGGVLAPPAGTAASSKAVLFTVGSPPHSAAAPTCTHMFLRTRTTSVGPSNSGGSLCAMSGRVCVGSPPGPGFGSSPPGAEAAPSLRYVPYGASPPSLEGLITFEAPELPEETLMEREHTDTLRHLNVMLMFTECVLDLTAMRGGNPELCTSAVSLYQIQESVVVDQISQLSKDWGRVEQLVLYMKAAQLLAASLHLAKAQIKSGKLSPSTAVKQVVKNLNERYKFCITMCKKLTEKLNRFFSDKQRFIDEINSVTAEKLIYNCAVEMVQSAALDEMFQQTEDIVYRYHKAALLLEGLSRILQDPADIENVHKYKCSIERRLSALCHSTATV

[4] = molecular target: T3, Serine/threonine-protein kinase STK11 (Homo sapiens) (UniProt Q15831); experiment: Inhibition of human recombinant LKB1 at 40 nM related to control ULK1
T3 sequence (whole entry): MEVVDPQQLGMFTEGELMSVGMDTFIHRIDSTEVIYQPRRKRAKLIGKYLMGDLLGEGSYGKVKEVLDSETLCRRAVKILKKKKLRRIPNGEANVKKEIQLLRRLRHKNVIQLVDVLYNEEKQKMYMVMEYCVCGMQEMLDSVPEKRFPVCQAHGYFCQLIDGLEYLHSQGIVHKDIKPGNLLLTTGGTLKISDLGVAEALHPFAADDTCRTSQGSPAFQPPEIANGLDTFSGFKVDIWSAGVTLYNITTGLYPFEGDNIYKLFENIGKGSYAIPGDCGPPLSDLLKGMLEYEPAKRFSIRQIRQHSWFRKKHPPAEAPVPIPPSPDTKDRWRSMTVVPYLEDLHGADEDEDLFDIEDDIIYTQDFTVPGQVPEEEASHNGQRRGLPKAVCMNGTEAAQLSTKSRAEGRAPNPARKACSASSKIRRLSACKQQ

[5] = molecular target: Ribosomal protein S6 kinase alpha-4 (Homo sapiens) (UniProt O75676); experiment: Inhibition of human recombinant MSK2 at 40 nM in presence of ATP by radiometric assay relative to control
[6] = molecular target: eIF-2-alpha kinase GCN2 (Homo sapiens) (UniProt Q9P2K8); experiment: Inhibition of human recombinant GCN2 at 15 nM related to control ULK1
[7] = molecular target: Leukocyte tyrosine kinase receptor (Homo sapiens) (UniProt P29376); experiment: Inhibition of human recombinant LTK at 15 nM in presence of ATP by radiometric assay relative to control
Leukocyte tyrosine kinase receptor (Homo sapiens), sequence (P29376 whole entry): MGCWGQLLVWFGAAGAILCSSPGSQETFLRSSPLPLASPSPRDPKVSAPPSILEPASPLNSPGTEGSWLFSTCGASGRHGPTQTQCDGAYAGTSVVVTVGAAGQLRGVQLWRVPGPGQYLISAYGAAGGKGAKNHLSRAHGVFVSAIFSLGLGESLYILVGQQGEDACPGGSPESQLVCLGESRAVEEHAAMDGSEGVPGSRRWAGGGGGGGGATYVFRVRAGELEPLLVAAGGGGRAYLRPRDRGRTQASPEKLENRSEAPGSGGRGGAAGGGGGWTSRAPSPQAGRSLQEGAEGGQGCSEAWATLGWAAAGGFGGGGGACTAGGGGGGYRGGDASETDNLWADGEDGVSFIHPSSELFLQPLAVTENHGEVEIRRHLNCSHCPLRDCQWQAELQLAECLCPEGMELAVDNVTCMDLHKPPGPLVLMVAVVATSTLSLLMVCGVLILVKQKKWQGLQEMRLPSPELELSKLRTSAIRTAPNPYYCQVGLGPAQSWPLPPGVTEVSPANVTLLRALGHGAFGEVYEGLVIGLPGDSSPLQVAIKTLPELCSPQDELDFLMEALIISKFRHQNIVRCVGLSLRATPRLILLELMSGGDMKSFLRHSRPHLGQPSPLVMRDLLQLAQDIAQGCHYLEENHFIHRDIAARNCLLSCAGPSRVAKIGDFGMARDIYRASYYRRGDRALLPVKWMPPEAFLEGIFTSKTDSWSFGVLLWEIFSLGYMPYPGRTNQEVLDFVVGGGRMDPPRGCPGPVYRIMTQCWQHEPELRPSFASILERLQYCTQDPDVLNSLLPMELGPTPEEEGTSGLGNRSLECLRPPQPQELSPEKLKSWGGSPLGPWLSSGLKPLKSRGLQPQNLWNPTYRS

Ribosomal protein S6 kinase alpha-4 (Homo sapiens), sequence (O75676 whole entry, looked up): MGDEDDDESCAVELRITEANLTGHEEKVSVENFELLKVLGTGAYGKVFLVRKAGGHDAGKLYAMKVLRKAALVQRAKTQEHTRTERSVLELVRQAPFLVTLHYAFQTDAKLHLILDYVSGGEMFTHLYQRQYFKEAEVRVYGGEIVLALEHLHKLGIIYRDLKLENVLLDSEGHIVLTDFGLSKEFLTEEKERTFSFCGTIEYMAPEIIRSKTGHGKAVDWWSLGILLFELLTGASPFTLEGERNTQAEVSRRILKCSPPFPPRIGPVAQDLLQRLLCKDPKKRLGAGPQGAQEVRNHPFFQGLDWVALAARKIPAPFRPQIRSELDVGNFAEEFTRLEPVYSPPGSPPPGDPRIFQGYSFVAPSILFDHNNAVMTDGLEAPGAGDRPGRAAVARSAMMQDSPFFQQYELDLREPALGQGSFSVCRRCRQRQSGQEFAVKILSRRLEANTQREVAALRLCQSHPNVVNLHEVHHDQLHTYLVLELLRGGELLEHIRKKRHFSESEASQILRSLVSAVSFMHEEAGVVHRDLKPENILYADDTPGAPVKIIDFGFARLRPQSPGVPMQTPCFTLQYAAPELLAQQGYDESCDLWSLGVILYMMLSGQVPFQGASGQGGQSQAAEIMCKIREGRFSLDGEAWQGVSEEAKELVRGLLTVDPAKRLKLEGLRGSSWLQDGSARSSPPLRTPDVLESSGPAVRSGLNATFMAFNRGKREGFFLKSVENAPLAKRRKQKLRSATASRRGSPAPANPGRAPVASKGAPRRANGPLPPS
Cell division cycle 7-related protein kinase (Homo sapiens), sequence (O00311 whole entry, looked up): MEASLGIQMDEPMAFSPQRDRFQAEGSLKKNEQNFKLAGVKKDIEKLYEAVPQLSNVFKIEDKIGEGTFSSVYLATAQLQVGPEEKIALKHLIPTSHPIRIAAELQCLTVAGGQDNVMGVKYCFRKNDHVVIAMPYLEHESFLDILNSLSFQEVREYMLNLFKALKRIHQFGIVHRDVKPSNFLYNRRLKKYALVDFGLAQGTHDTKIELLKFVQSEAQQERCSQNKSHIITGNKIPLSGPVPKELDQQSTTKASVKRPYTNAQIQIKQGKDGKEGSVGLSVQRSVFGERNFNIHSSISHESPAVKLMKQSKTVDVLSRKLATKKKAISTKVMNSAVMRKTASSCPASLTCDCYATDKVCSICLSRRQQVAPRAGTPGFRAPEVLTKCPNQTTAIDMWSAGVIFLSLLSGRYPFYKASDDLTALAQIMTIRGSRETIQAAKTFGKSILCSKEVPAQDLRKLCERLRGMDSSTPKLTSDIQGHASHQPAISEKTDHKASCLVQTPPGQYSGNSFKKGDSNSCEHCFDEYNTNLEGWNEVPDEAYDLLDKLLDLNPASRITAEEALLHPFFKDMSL
eIF-2-alpha kinase GCN2 (Homo sapiens), sequence (Q9P2K8 whole entry): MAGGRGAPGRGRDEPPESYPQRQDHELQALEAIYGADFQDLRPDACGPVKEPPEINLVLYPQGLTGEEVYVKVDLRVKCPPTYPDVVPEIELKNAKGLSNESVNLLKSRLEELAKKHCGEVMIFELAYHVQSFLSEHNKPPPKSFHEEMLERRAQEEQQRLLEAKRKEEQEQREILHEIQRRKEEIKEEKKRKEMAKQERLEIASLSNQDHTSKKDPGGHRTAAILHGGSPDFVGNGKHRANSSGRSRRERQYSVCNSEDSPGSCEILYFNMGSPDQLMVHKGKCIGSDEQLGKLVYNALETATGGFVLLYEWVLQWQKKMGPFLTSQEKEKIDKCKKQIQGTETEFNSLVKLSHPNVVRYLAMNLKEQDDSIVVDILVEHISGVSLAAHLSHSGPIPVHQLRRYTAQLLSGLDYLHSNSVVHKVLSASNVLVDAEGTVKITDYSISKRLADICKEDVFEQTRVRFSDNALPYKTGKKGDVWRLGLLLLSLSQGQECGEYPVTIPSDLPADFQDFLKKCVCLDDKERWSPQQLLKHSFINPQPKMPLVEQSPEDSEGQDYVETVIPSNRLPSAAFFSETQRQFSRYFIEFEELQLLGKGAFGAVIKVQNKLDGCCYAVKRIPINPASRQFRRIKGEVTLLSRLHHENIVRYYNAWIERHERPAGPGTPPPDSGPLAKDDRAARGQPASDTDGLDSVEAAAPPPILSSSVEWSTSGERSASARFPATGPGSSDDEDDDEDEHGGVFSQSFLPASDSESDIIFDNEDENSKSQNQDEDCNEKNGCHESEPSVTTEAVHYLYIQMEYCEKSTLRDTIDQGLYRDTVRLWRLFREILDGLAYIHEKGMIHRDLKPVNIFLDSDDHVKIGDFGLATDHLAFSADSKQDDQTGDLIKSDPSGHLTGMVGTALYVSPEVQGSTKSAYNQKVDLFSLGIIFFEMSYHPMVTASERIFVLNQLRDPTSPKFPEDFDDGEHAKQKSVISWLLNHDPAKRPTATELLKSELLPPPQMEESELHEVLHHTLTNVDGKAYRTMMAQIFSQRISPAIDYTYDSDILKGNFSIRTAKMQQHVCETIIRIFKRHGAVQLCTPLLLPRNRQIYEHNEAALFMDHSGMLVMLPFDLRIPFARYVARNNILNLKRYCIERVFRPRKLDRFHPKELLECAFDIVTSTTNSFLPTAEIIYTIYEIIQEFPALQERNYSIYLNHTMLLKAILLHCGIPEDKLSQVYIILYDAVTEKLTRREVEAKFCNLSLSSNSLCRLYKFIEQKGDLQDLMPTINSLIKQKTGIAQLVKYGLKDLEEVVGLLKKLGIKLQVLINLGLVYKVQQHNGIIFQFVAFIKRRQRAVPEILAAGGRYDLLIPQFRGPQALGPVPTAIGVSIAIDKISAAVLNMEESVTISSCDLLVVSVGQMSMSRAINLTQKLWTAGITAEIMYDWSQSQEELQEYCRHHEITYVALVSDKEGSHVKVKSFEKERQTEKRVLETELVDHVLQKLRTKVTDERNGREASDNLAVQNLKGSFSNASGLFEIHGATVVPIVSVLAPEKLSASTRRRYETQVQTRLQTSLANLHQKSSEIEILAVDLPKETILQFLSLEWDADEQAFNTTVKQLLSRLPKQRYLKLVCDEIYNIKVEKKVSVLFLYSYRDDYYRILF

fold change (FC) [1]: 0 | inhibition [2]: 2%
SMILES: CNC(=O)c1ccccc1Oc1nc(Nc2cc(OC)c(OC)c(OC)c2)ncc1Br

inhibition [3]: 46% | fold change (FC) [4]: 0.18 | inhibition [5]: 0%
SMILES: O=C(N[C@@H](C1CC1)C(F)(F)F)c1cc(-c2cnn3cc(-c4ccc(F)cc4)cnc23)cs1

fold change (FC) [6]: 0.09 | inhibition [7]: 0%
SMILES: CC(C)[C@H](NC(=O)c1cc(-c2cnn3cc(-c4ccc(OCCN5CCCCC5)cc4)cnc23)cs1)C(F)(F)F
